{"source": "patent EP0752872B1", "about": "“NADH OXIDASE AS A TARGET IN DIAGNOSIS AND THERAPY” (Morré, D. James, priority 1994, dated 1995)", "key": {"[1]": {"test_system": "plasma membrane NADH oxidase", "conditions": "addition at 0.1 µM; normal rat liver plasma membrane vesicles; no addition 0.72 ± 0.06; cited from earlier work"}, "[2]": {"molecular_target": "T1, plasma membrane NADH oxidase activity from RLT-N hepatoma (Rattus norvegicus, UniProt D3Z9Z5)", "T1 sequence (D3Z9Z5 1-606)": "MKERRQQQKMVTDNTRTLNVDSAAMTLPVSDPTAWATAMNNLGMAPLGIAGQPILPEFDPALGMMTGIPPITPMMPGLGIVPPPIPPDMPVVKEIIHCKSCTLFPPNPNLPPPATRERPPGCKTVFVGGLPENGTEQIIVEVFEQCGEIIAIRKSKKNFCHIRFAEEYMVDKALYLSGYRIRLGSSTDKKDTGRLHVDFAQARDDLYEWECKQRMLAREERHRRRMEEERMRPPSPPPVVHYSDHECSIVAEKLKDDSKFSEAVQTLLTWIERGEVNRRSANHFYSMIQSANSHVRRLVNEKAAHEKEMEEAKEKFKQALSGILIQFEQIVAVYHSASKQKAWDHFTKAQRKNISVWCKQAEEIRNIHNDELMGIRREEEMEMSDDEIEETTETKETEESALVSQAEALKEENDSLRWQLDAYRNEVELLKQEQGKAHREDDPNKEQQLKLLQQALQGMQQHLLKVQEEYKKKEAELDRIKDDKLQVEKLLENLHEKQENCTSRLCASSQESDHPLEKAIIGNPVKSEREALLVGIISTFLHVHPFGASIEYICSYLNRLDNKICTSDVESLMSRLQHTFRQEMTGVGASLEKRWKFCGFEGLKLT", "assay": "Spectrophotometric NADH oxidase assay, rat hepatoma plasma membranes", "format": "biochemical", "description": "(§1) Spectrophometric assay of NADH oxidase. NADH oxidase activity was determined as the disappearance of NADH measured at 340 nm in a reaction mixture containing 25 mM Tris-MES buffer (pH 7.2), 1 mM KCN to inhibit the low levels of contaminating mitochondrial oxidase activity, and 150 µM NADH at 37°C with constant stirring. Activity was measured using a Hitachi U3210 spectrophotometer with continuous recording over two intervals of 5 min each. A millimolar extinction coefficient of 6.22 was used to determine specific activity."}, "[3]": {"test_system": "uninfected Crandall feline leukemia cells", "assay": "Growth of uninfected cells", "format": "cell-based", "conditions": "Felis catus; normal cells; read-out: concentration inhibiting growth", "description": "(§2) The antisera were conjugated to adriamycin through an activated carboxyl of the antibody to the amine of adriamycin free base using 2-isobutoxyl-1-isobutoxycarbonyl-1,2-dihydroxyquinoline, where the antibody was bound to an Ag-BSA sepharose affinity column. The concentration of drug conjugated was determined spectroscopically and was tested initially at a concentration of 0.2 µM on the growth of FIV-infected and -uninfected Crandall feline leukemia cells."}, "HL-60 cells [4]": {"test_system": "HL-60 cells", "assay": "Growth of HL-60 cells in suspension", "format": "cell-based, human"}, "[5]": {"test_system": "NADH oxidase activity of serum", "assay": "NADH oxidation by rat serum samples", "format": "biochemical", "conditions": "+0.25 µM adriamycin", "description": "as §1"}, "[6]": {"test_system": "plasma membrane NADH oxidase", "assay": "Spectrophotometric NADH oxidase assay, rat liver plasma membranes (normal cells)", "format": "biochemical", "description": "Purification of plasma membranes from rat liver. A 5000 x g pellet from the preparation of Golgi apparatus (Morré (1971) Meth. Enzymol. 22, 130-148) was the starting material. The fluffy layer which contains the Golgi apparatus fraction was mixed, withdrawn and excluded from the plasma membrane preparations. Cold 1 mM NaHCO3 (5 ml) was added to each tube and the friable yellow-brown upper part of the pellet was resuspended with a pen-brush, leaving the reddish tightly packed bottom part of the pellet undisturbed. The resuspended material was homogenized in aliquots of 5 ml each in a 30 ml stainless steel homogenizer (Duragrind) 20 times by hand. The homogenates were combined, diluted with cold 1 mM NaHCO3 (1:1 dilution), and centrifuged at 6000 x g in a HB rotor for 15 min. The supernatant was discarded and the pellet was used for the two-phase separation (Morré & Morré (1989) BioTechniques 7:946-958).\nThe two-phase system contained 6.4% (w/w) Dextran T-500 (Pharmacia), 6.4% (w/w) polyethylene glycol) 3350 (Fisher), and 5 mM potassium phosphate buffer (pH 7.2) (Morré & Morré, 1989, supra). The homogenate (1 g) was added to the two-phase system and the weight of the system was brought to 8 g with distilled water. The tubes were inverted vigorously for 40 times in the cold (4°C). The phases were separated by centrifugation at 750 rpm (150 x g) in a Sorvall HB 4 rotor for 5 min. The upper phases were carefully withdrawn with a pasteur pipette, divided in half and transferred into 40 ml plastic centrifuge tubes and diluted with cold 1 mM NaHCO3. The purified plasma membranes were collected by centrifugation at 10,000 x g in a HB rotor for 30 min. Plasma membrane pellets were resuspended in 50 mM Tris-Mes buffer (pH 7.2) and stored at -70°C. Proteins were determined using the bicinchoninic acid (BCA) assay (Smith et al. (1985) Anal. Biochem. […]: 76-85) with bovine serum albumin as standard.\nas §1"}, "[7]": {"test_system": "circulating NADH oxidase in the serum", "assay": "NADH oxidase activity of human serum", "format": "biochemical", "conditions": "adriamycin", "description": "as §1"}, "[8]": {"test_system": "FIV-infected Crandall feline leukemia cells", "assay": "Growth of FIV-infected cells", "format": "cell-based", "conditions": "Felis catus, read-out: concentration inhibiting growth", "description": "as §2"}, "[9]": {"test_system": "NADH oxidase activity of plasma membranes of HL-60 cells", "assay": "NADH oxidase assay, HL-60 plasma membranes", "format": "biochemical, human", "description": "as §1"}, "HL-60 cells [10]": {"test_system": "HL-60 cells", "assay": "Ascorbate radical assay of electron flow released from cells", "format": "cell-based, human", "conditions": "0.2 mM ascorbate", "description": "Of particular interest is employing an electron acceptor in the assay for NADH oxidase, conveniently ascorbate radical, where one may follow the rate of disappearance of the ascorbate radical under the conditions of the assay. One can measure the reduction of ascorbate free radical at 265 nm employing a spectrophotometer as described by Winkler (1987) Biochim. et Biophys. Acta 925:258-264. One may use intact cells suspended in a convenient buffer medium containing ascorbate, incubating the cell suspension and then following the reduction of the ascorbate as described above. See, also, Alcain et al. (1991) Biochim. et Biophys. Acta 1073:380-385 and Navas et al. (1992) FEBS Letters 299:223-226.\nUnder these conditions, electron flow is inhibited by adriamycin at concentrations where growth is inhibited in adriamycin susceptible HL-60 cells, but not inhibited with adriamycin-resistant cells, where growth also is not inhibited. These inhibitions with susceptible cells were observed without perceptible lag. Also the response was observed without preincubation with adriamycin."}, "[11]": {"molecular_target": "T2, NADH oxidase from HeLa cell plasma membranes (Homo sapiens, UniProt Q16206)", "T2 sequence (Q16206 1-610)": "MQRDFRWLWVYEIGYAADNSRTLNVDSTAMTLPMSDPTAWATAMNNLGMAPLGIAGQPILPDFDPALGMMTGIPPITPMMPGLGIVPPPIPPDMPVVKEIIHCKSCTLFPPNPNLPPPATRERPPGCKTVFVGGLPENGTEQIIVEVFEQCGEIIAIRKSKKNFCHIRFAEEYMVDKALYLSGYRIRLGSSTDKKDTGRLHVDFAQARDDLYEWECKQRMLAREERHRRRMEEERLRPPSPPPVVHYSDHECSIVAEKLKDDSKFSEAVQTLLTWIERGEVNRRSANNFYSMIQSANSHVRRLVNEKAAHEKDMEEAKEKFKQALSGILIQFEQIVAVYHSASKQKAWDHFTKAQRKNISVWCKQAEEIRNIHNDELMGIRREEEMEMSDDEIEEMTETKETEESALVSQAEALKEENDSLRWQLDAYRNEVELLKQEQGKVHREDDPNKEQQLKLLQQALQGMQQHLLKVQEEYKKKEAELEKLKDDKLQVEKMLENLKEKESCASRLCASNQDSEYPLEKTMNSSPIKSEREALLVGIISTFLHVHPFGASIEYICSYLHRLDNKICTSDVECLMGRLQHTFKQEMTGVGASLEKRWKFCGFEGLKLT", "assay": "Spectrophotometric NADH oxidase assay, HeLa plasma membranes", "format": "biochemical", "conditions": "HeLa plasma membranes", "description": "Purification of plasma membranes from HeLa cells. HeLa cells were grown as suspension cultures in minimum essential medium (MEM) supplemented with horse serum, diferric transferrin and heparin. Cells were collected by centrifugation for 6 to 15 min at 1,000 to 3,000 rpm. The cell pellets were resuspended in 0.2 mM EDTA in 1 mM NaHCO3 in an approximate ratio of 1 ml per 10^8 cells and incubated on ice for 10 to 30 min to swell the cells. Homogenization was with a Polytron Homogenizer for 30 to 40 sec at 10,500 rpm using a PT-PA 3012/23 or ST-probe in 7 to 8 ml aliquots. To estimate breakage, the cells are monitored by light microscopy before and after homogenization. […]\nThe homogenates were centrifuged for 10 min at 1,000 rpm (175 g) to remove unbroken cells and nuclei and the supernatant was centrifuged a second time at 1.4 x 10^6 g min (e.g. 1 h at 23,500 g) to prepare a plasma membrane enriched microsome fraction. […] The purity of the plasma membrane was determined to be > 90% by electron microscope morphometry. […]\nSpectrophometric assay of NADH oxidase. NADH oxidase activity was determined as the disappearance of NADH measured at 340 nm in a reaction mixture containing 25 mM Tris-MES buffer (pH 7.2), 1 mM KCN to inhibit the low levels of contaminating mitochondrial oxidase activity, and 150 µM NADH at 37°C with constant stirring. […]"}}}
{"compound": "C=C1/C(=C\\C=C2/CCC[C@]3(C)[C@@H]([C@H](C)CCCC(C)(C)O)CC[C@@H]23)C[C@@H](O)C[C@@H]1O", "note": "[Calcitrol]", "values": [{"measurement": "NADH oxidase", "setting": "[1]", "value": "0.16 ± 0.04", "unit": "nmoles/min/mg protein"}]}
{"compound": "COc1cccc2c1C(=O)c1c(O)c3c(c(O)c1C2=O)C[C@@](O)(C(=O)CO)C[C@@H]3O[C@H]1C[C@H](N)[C@H](O)[C@H](C)O1", "note": "[adriamycin]", "values": [{"measurement": "inhibition at 0.1 µM", "setting": "[2]; 0.1 µM adriamycin, hepatoma plasma membranes", "value": 40, "unit": "%"}, {"measurement": "minimal effective concentration", "setting": "[3]", "value": "≥ 10", "unit": "µM"}, {"measurement": "inhibition of growth (in words)", "setting": "HL-60 cells [4]; HL-60 cells, adriamycin susceptible, not differentiated", "value": "inhibited"}, {"measurement": "inhibition of growth (in words)", "setting": "HL-60 cells [4]; adriamycin-resistant cells", "value": "not inhibited"}, {"measurement": "Relative rates of NADH oxidation", "setting": "[5]; serum from normal rats, no adriamycin 1.7 ± 0.1", "value": "1.75 ± 0.05"}, {"measurement": "Relative rates of NADH oxidation", "setting": "[5]; serum from rats bearing an RLT-28 tumor, no adriamycin 1.0 ± 0.1", "value": "0.35 ± 0.05"}, {"measurement": "inhibition of growth factor-stimulated NADH oxidase activity", "setting": "[6]; 0.1 µM adriamycin, activity stimulated by epidermal growth factor (EGF)", "value": "inhibited completely"}, {"measurement": "inhibition of NADH oxidase activity", "setting": "[6]; 0.1 µM adriamycin, liver plasma membranes", "value": "uninhibited"}, {"measurement": "IC50", "setting": "[6]; plasma membranes from rat liver, normal cells, read-out: ED50 for inhibition of NADH oxidase activity", "value": "~7", "unit": "µM"}, {"measurement": "effect on change in absorbance (in words)", "setting": "[7]; sera from 12 normal individuals", "value": "consistently stimulated"}, {"measurement": "effect on activity (in words)", "setting": "[7]; sera from the 18 cancer patients", "value": "inhibited with 17 of the samples and unchanged in one"}, {"measurement": "minimal effective concentration", "setting": "[8]", "value": "≥ 10", "unit": "µM"}, {"measurement": "inhibition of NADH oxidase activity (in words)", "setting": "[9]; adriamycin-resistant HL-60 cells", "value": "not inhibited"}, {"measurement": "inhibition of NADH oxidase activity (in words)", "setting": "[9]; normal, adriamycin-susceptible HL-60 cells", "value": "inhibited"}, {"measurement": "inhibition of electron flow (in words)", "setting": "HL-60 cells [10]; adriamycin susceptible HL-60 cells", "value": "inhibited"}, {"measurement": "inhibition of electron flow (in words)", "setting": "HL-60 cells [10]; adriamycin-resistant cells", "value": "not inhibited"}]}
{"compound": "CCCCCCCCCC[C@H](O)[C@H]1CC[C@H]([C@H]2CC[C@H]([C@H](O)CCCCCCCCCC[C@@H](O)CC3=C[C@H](C)OC3=O)O2)O1", "note": "[bullatacin]", "values": [{"measurement": "inhibition of NADH oxidase activity (in words)", "setting": "[11]", "value": "inhibition"}]}
{"compound": "simalikalactone D [similikalactone D]", "values": [{"measurement": "inhibition of NADH oxidase activity (in words)", "setting": "[2]; final concentration of 0.4 µM prepared in DMSO, equivalent DMSO without effect", "value": "inhibited"}]}
